Assay type in all cases: functional, cell-based
One experiment has as its system A549/TR. Kind of experiment: Cytotoxicity against human A549/Taxol cells assessed as reduction in cell viability incubated for 48 hrs by MTT assay. In general terms: Formazan colour is commonly taken as a measure of viable cells.
The next experiment deals with NCI-H1299. Kind of experiment: Cytotoxicity against human NCI-H1299 cells assessed as reduction in cell viability incubated for 48 hrs by MTT assay. Conditions: NCI-H1299, 48 h.
A further experiment deals with HEL. Kind of experiment: Cytotoxicity against HEL cells assessed as reduction in cell viability incubated for 72 hrs by WST assay. The conditions noted are these: Homo sapiens.
In a further experiment the test system is NCI-H1975. Put plainly: Cytotoxicity against human NCI-H1975 cells assessed as reduction in cell viability incubated for 48 hrs by MTT assay. Conditions: NCI-H1975, 48 h.
A further experiment has as its system HCT-116. Kind of experiment: Cytotoxicity against human HCT-116 cells assessed as reduction in cell viability incubated for 72 hrs by SRB assay. Conditions: HCT-116, 72 h. (In general: Sulforhodamine B stains cellular protein and so reports cell mass.)
Another experiment has as its system K562. Put plainly: Cytotoxicity against human K562 cells assessed as reduction in cell viability incubated for 72 hrs by SRB assay. Conditions: K562, 72 h.
In another experiment the test system is MDA-MB-231. Kind of experiment: Cytotoxicity against human MDA-MB-231 cells assessed as reduction in cell viability incubated for 72 hrs by SRB assay. Conditions: MDA-MB-231, 72 h.
A further experiment has as its system SNU-638. Kind of experiment: Cytotoxicity against human SNU-638 cells assessed as reduction in cell viability incubated for 72 hrs by SRB assay. Conditions: SNU-638, 72 h.
In another experiment the test system is SK-HEP1. Kind of experiment: Cytotoxicity against human SK-HEP1 cells assessed as reduction in cell viability incubated for 72 hrs by SRB assay. Conditions: SK-HEP1, 72 h.
A further experiment deals with A549. Put plainly: Cytotoxicity against human A549 cells assessed as reduction in cell viability incubated for 72 hrs by SRB assay. The conditions noted are these: A549, 72 h.

Each structure is given as a SMILES string.

With `CC(C)C[C@@H]1NC(=O)[C@H](Cc2ccccc2)N(C)C(=O)[C@@H](C)NC(=O)[C@H](C(C)C)N(C)C(=O)CCNC(=O)[C@H](C)N(C)C(=O)[C@H](C(C)C)NC(=O)[C@H](Cc2c[nH]c3ccccc23)N(C)C(=O)[C@@H]2CCCNN2C(=O)[C@H](CO)N(C)C1=O`, the IC50 with A549/TR amounted to 17 µM; in the experiment on NCI-H1299, 11 µM; in the experiment with HEL it was 14 µM; with NCI-H1975 it was 24 µM.

On to `CC[C@H](C)[C@@H]1NC(=O)[C@H](Cc2c[nH]c3ccccc23)N(C)C(=O)[C@@H]2CCCNN2C(=O)[C@H](CO)N(C)C(=O)[C@H](CC(C)C)NC(=O)[C@H](Cc2ccccc2)N(C)C(=O)[C@@H](C)NC(=O)[C@H](C(C)C)N(C)C(=O)CCNC(=O)[C@H](C)N(C)C1=O`, for which the IC50 worked out at 19 µM in the experiment with A549/TR; 0.2 µM in the experiment on HCT-116; 0.2 µM with K562; 11 µM in the experiment with NCI-H1299; 0.2 µM with MDA-MB-231; 0.2 µM in the experiment with SNU-638. Besides, the IC50 came out at 0.2 µM in the experiment with SK-HEP1, 0.2 µM with A549, 13 µM in the experiment on HEL and 8 µM with NCI-H1975.

With `COc1cccc2c1C(=O)c1c(O)c3c(c(O)c1C2=O)C[C@@](O)(C(=O)CO)C[C@@H]3O[C@H]1C[C@H](N)[C@H](O)[C@H](C)O1` [DOXORUBICIN], the IC50 turned out to be 1.6 µM with A549/TR, 1.4 µM in the experiment with NCI-H1299, 0.05 µM with HEL and 0.12 µM in the experiment on NCI-H1975.

As to `COc1cc([C@@H]2c3cc4c(cc3[C@@H](O[C@@H]3O[C@@H]5CO[C@@H](C)O[C@H]5[C@H](O)[C@H]3O)[C@H]3COC(=O)[C@H]23)OCO4)cc(OC)c1O` [ETOPOSIDE], the half-maximal inhibitory concentration (IC50) in the experiment with HCT-116, in the experiment with K562, in the experiment on MDA-MB-231, with SNU-638, in the experiment on SK-HEP1 and in the experiment with A549 was 0.4 µM in each case.

What is called IC50 is the midpoint of a concentration-inhibition curve.

The values above are taken from ChEMBL document CHEMBL5370581, “NMR-Metabolomic Profiling and Genome Mining Drive the Discovery of Cyclic Decapeptides from a Marine Streptomyces” (J Nat Prod, 2023).
